# According to EP3835316A1, “MOLECULES FOR USE TO TREAT OR PREVENT CARDIAC DISEASES” (Universiteit Gent, priority 2019, dated 2021):
# Biological target: T1, Cx43 HC (Mus musculus, UniProt P23242)
# T1 construct: left ventricular isolated cardiomyocytes were collected; endogenous in cells; host or cells: left ventricular cardiomyocytes acutely isolated from adult C57BL6 mice
# Experiment: Whole cell voltage-clamp recording of Cx43 HC unitary currents activated by combined RyR activation (caffeine)/[Ca2+]i elevation in isolated ventricular cardiomyocytes
# Type: cell-based
# Conditions: RyR inhibitors; [Ca2+]i clamped to 250 nM (10 mM BAPTA); Vm = -70 mV
# Method: Adult C57BL6 mice, between 10 - 16 weeks, were heparinized (5000 IU/kg IP) and sacrificed by cervical dislocation. Following thoracotomy, the heart was quickly excised and then transferred to a Langendorff apparatus and perfused at a constant flow (^∼3 mL/min) and temperature (37°C). The heart was digested using collagenase and protease and left ventricular isolated cardiomyocytes were collected. Ca^2+-tolerant cells were used for the experiment for the next 6 hours. In case of Cx43 knockdown (KD) (Cx43^CreER(T)/fl) and respective control mice (Cre43^fl/fl) the isolation procedures were preceded by daily injection of tamoxifen to achieve global knockdown condition^25. Cre43^fl/fl mice are available from The Jackson Laboratory and the Cx43^CreER(T)/fl transgenic mouse strain can be made by any method known in the art.
# Isolated ventricular cardiomyocytes and HeLa-Cx43 cells were studied under whole cell voltage-clamp to record membrane currents. Patch clamp experiments were conducted at room temperature (22 ± 1 °C). Fluo-4 (25 µM) was used to detect the [Ca^2+]i transients during the current recording.
# Caffeine triggers two combined events, RyR activation and subsequent [Ca^2+]i elevation, and we next aimed to separate both processes. […] For simplicity, we further refer to the calculated concentrations in the following text. […]
# T1 sequence (P23242 whole entry): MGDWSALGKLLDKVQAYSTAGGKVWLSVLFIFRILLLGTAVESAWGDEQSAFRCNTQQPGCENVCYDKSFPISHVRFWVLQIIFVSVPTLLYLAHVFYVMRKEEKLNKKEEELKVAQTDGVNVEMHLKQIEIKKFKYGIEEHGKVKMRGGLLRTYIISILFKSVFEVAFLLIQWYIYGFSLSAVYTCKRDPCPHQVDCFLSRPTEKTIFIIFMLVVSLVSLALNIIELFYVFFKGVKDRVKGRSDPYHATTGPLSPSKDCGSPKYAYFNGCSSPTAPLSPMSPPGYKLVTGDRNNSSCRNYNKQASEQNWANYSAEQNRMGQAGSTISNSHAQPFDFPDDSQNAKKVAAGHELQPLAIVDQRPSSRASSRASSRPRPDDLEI
row,Molecule,caffeine-induced Cx43 HC activation
1,O=C1CN(/N=C/c2ccc(-c3ccc([N+](=O)[O-])cc3)o2)C(O)=N1 [dantrolene],did not inhibit
2,ryanodine,did not inhibit
